Data from paper PMC9020739, “Identification of a two-component regulatory system involved in antimicrobial peptide resistance in Streptococcus pneumoniae” (PLoS Pathogens, 2022).
≈ marks a conversion by molar mass, not a printed value. Where a SMILES comes first, the peptide text is derived from it. Bridges are numbered along the chain shown (N, C = ends). [ ]: non-standard residue; d: D form. The star is where a group is joined. Ileψ(thiazoline)Cys = CC[C@H](C)[C@H](N)C1=N[C@H](C(=O)*)CS1; dOrn = NCCC[C@@H](N)C(=O)O

Columns and labels:
Type in all cases: cell-based, Streptococcus pneumoniae
[1] = test system: S. pneumoniae R800 bceAB-gfp; settings: R800 strain; 2-fold broth dilution, Todd-Hewitt medium, 37°C, 15 h; at least biological triplicates, each technical duplicates
Method: (§1) The MIC of various antimicrobial peptides for R6, R800 and D39 strains was determined by classical 2-fold broth dilution method. Cells were first grown in Todd-Hewitt medium at 37°C without agitation and in anaerobic conditions until the absorbance reaches approximatively 0.3. Complementation strains were grown with 0.5 μM ComS inducer until the appropriate OD. Cells were then diluted at final OD600nm = 0.002 in 96-well plates containing 300 μL of Todd-Hewitt medium (and 2 μM ComS inducer for the complementation strains) with serial dilutions of antimicrobial peptides. Pneumococcal growth was monitored by a microplate reader (TECAN) at 37°C without agitation. The absorbance was followed at 600 nm every 15 min for 15 h.

[2] = test system: S. pneumoniae R800 ΔbceAB-Δhk01-PcomX-hk01; settings: R800 complementation strain, 2 μM ComS inducer; 2-fold broth dilution, Todd-Hewitt medium, 37°C, 15 h; at least biological triplicates, each technical duplicates
Method: as §1

[3] = test system: S. pneumoniae D39 ΔbceAB/tcs01; settings: D39 strain; 2-fold broth dilution, Todd-Hewitt medium, 37°C, 15 h; two to four biological replicates, each technical duplicates
Method: as §1

S. pneumoniae R6 Δtcs01 = settings: R6 strain; 2-fold broth dilution, Todd-Hewitt medium, 37°C, 15 h; two to four biological replicates, each technical duplicates
Method: as §1

[4] = test system: S. pneumoniae R800 Δhk01-PcomX-hk01
Method: as §1

S. pneumoniae D39 ΔbceAB = settings: D39 strain; 2-fold broth dilution, Todd-Hewitt medium, 37°C, 15 h; two to four biological replicates, each technical duplicates
Method: as §1

S. pneumoniae R6 ΔbceAB = settings: R6 strain; 2-fold broth dilution, Todd-Hewitt medium, 37°C, 15 h; two to four biological replicates, each technical duplicates
Method: as §1

[5] = test system: S. pneumoniae R6 ΔbceAB/tcs01; settings: R6 strain; 2-fold broth dilution, Todd-Hewitt medium, 37°C, 15 h; two to four biological replicates, each technical duplicates
Method: as §1

S. pneumoniae D39 Δtcs01 = settings: D39 strain; 2-fold broth dilution, Todd-Hewitt medium, 37°C, 15 h; two to four biological replicates, each technical duplicates
Method: as §1

S. pneumoniae R800 WT = settings: R800 strain; 2-fold broth dilution, Todd-Hewitt medium, 37°C, 15 h; at least biological triplicates, each technical duplicates
Method: as §1

S. pneumoniae R6 WT = settings: R6 strain
Method: as §1

[6] = test system: S. pneumoniae R800 ΔbceAB; settings: R800 strain; 2-fold broth dilution, Todd-Hewitt medium, 37°C, 15 h; at least biological triplicates, each technical duplicates
Method: as §1

S. pneumoniae R800 Δhk01 = settings: R800 strain; 2-fold broth dilution, Todd-Hewitt medium, 37°C, 15 h; at least biological triplicates, each technical duplicates
Method: as §1

S. pneumoniae D39 WT = settings: D39 strain
Method: as §1

[7] = test system: bceAB genes in S. pneumoniae D39 Δtcs01; assay: Quantification of gene expression by qPCR; settings: D39 Δtcs01 knockout; bacitracin 1 μg/ml
Method: (§2) S. pneumoniae D39 WT and Δtcs01 strains were routinely grown to OD600nm = 0.3 in THY. Then 1 μg/mL of bacitracin was added to the growth media for up to 30 min. Samples were taken at time points shown in the results section. Next, the cultures were mixed with RNA protect (Qiagen) at 1:1 ratio and incubated at room temperature for 5 min and centrifuged for 10 min at 3, 200 g at 4°C. The supernatant was decanted and the pellet was stored at -80°C. The bacteria were resuspended in 100 μL of sterile Tris-EDTA (TE), containing 15 mg/mL lysozyme (Sigma) then 20 μL of Proteinase K (20 mg/mL) (Roche) were added. The sample was vortexed 5 times for 10 sec at two-minutes intervals. Then 350 μL of lysis buffer from the Nucleospin RNA kit (Macherey-Nagel) were added to the sample with 3.5 μL of β-mercaptoethanol and 25 mg of glass beads (Sigma). The cells were lysed by continual vortexing for 5 min. The mRNA was extracted according to the manufacturer’s instructions. After elution, RNA samples were incubated with 5 μL of DNAse for 20 min at room temperature, then inactivated by heating for 70°C for 5 min. RNA concentration was measured using Nanovue (GE Healthcare). For cDNA synthesis 1 μg of RNA was generally used with the SuperScript III kit (Invitrogen) containing a reverse transcriptase, a set of primers, dNTPs, MgCl2 random hexamers and […] after the cDNA generation according to manufacturer’s instructions. Samples were then stored at -20°C. qPCR measurements were done with 2.5 μL of cDNA mixed with 1 μL (3 μM final) of forward and reverse primers, 5 μL iQ SYBR Green Supermix (BioRad) and 0.5 μL water using the CFX Connect Optical Module (BioRad) program as follows: 95°C for 3 min, then a repeat 40 times of 95°C for 10 sec, 55°C for 30 sec, and a fluorescence reading.

[8] = test system: bceAB and tcs01 genes in S. pneumoniae D39 WT; assay: Quantification of gene expression by qPCR; settings: D39 wild-type, bacitracin 1 μg/ml for 5, 15 and 30 min, relative to untreated control
Method: as §2

Question: `CC[C@H](C)[C@H](N)C1=N[C@H](C(=O)N[C@@H](CC(C)C)C(=O)N[C@H](CCC(=O)O)C(=O)N[C@H](C(=O)N[C@H]2CCCCNC(=O)[C@H](CC(N)=O)NC(=O)[C@@H](CC(=O)O)NC(=O)[C@H](Cc3cnc[nH]3)NC(=O)[C@@H](Cc3ccccc3)NC(=O)[C@H]([C@@H](C)CC)NC(=O)[C@@H](CCCN)NC2=O)[C@@H](C)CC)CS1` [bacitracin] ({Ileψ(thiazoline)Cys}-L[dE]IK[dOrn]I[dF]H[dD]N; lactam 4-C (inferred); N-terminus assumed) was tested. Which “MIC, bceAB-gfp” value [1] did it give?
Answer: 4 µg/mL (≈ 2.81 µM)

Question: What about the “MIC, ΔbceAB-Δhk01-PcomX-hk01” value [2] of the same compound?
Answer: 1 µg/mL (≈ 0.703 µM)

Question: What about the “Minimum Inhibitory Concentration, ΔbceAB/tcs01” value [3] of the same compound?
Answer: 1 µg/mL

Question: And the “Minimum Inhibitory Concentration, Δtcs01” value (S. pneumoniae R6 Δtcs01)?
Answer: 1 µg/mL

Question: What about the “Resistance as compared to the WT strain” value ([4]; R800-Δhk01-PcomX-rr01-hk01 versus R800 WT, from MICs) of the same compound?
Answer: 64 fold

Question: And the “MIC, Δhk01-PcomX-hk01” value ([4]; R800 complementation strain, 2 μM ComS inducer, 2-fold broth dilution, Todd-Hewitt medium, 37°C, 15 h, at least biological triplicates, each technical duplicates)?
Answer: 256 µg/mL (≈ 180 µM)

Question: And the “Minimum Inhibitory Concentration, ΔbceAB” value (S. pneumoniae D39 ΔbceAB)?
Answer: 1 µg/mL

Question: What about the “Minimum Inhibitory Concentration, ΔbceAB” value (S. pneumoniae R6 ΔbceAB) of the same compound?
Answer: 1 µg/mL

Question: And the “Minimum Inhibitory Concentration, ΔbceAB/tcs01” value [5]?
Answer: 1 µg/mL

Question: And the “Minimum Inhibitory Concentration, Δtcs01” value (S. pneumoniae D39 Δtcs01)?
Answer: 1 µg/mL

Question: And the “MIC, WT” value (S. pneumoniae R800 WT)?
Answer: 4 µg/mL (≈ 2.81 µM)

Question: And the “Minimum Inhibitory Concentration, WT” value (S. pneumoniae R6 WT; 2-fold broth dilution, Todd-Hewitt medium, 96-well plates, start OD600 0.002, 37°C, A600 followed 15 h, two to four biological replicates, each technical duplicates)?
Answer: 8 µg/mL

Question: What about the “Fold sensitivity displayed by the KO strains” value (S. pneumoniae R6 WT; KO strains versus WT MIC) of the same compound?
Answer: 8

Question: What about the “MIC, ΔbceAB” value [6] of the same compound?
Answer: 1 µg/mL (≈ 0.703 µM)

Question: What about the “MIC, Δhk01” value (S. pneumoniae R800 Δhk01) of the same compound?
Answer: 1 µg/mL (≈ 0.703 µM)

Question: And the “Minimum Inhibitory Concentration, WT” value (S. pneumoniae D39 WT; 2-fold broth dilution, Todd-Hewitt medium, 37°C, 15 h, two to four biological replicates, each technical duplicates)?
Answer: 4 µg/mL

Question: What about the “Fold sensitivity diplayed by the KO strains” value (S. pneumoniae D39 WT; KO strains versus WT MIC) of the same compound?
Answer: 4

Question: What about the “Transcription of the bceAB genes” value [7] of the same compound?
Answer: failed to upregulate

Question: What about the “Transcription of the tcs01 genes” value [8] of the same compound?
Answer: unaffected

Question: What about the “Transcription of the bceAB genes” value ([8]; n = 6-8) of the same compound?
Answer: strong upregulation
